Experimental findings from patent US11564909B2, “Methods and compositions for oral pilocarpine liquid” (ROMEG Therapeutics LLC, priority 2020, dated 2023) are described below.

Data set [1] deals with Caco-2 cells. The data set can be described thus: in vitro. How it is done:
(§1) The objective of this study was to evaluate the bidirectional Caco-2 permeability of three formulations of test article Pilocarpine at three pH levels (pH 5.7, 6.5, 7.4) using calibration curve quantitation.
(§2) Samples were analyzed by LC/MS/MS using an Waters Xevo TQ mass spectrometer coupled with an Acuity HPLC and a CTC PAL chilled autosampler, all controlled by MassLynx software (Waters). After separation on a C18 reverse phase (Waters Acquity HSS T3 2.1×50 mm […]) using an acetonitrile-water gradient system, peaks were analyzed by mass spectrometry (MS) using ESI ionization in MRM mode.
(§3) Tables 16-17 show the HPLC gradients used and the experiment conditions of the Caco-2 permeability test, respectively.
(§4) Caco-2 cells grown in tissue culture flasks were trypsinized, suspended in medium, and the suspensions were applied to wells of a Millipore 96 well plate. The cells were allowed to grow and differentiate for three weeks, feeding at 2-day intervals.
(§5) For Apical to Basolateral (A→B) permeability, the test article was added to the apical (A) side and amount of permeation was determined on the basolateral (B) side; for Basolateral to Apical (B→A) permeability, the test article was added to the B side and the amount of permeation was determined on the A side. […] Caco-2 cells were incubated with test articles in these buffers for 2 hours, and at the end of the assay, donor and receiver side solution samples were collected, quenched by 100% methanol containing an internal standard and centrifuged at 5000 rpm for 10 minutes at 4° C. Following centrifugation, the supernatant for donor and receiver side samples were analyzed by LC-MS/MS.
(§6) Data is expressed as permeability (Papp):
(§7) [formula] dQ/dt is rate of permeation, C0 is initial concentration of test article, and A is the area of monolayer.
(§8) In bidirectional permeability studies, Efflux Ratio (Re) is also calculated:
(§9) [formula] Re>2 indicates a potential substrate for P-gp or other active efflux transporters. The donor, dosing and receiver side sample concentrations were calculated based on the calibration curve prepared in buffer matrix in the range of 1-20,000 nM.

Data set [2] in a line: in vitro. The conditions noted are these: human, Caco-2. How it is done: as §1, §2, §3, §4, §5, §6, §7, §8, §9

SMILES strings stand for the structures.

In the case of `COCCc1ccc(OCC(O)CNC(C)C)cc1` (stereo not drawn) [Metoprolol], in data set [1], the “Comments (permeability class)” value was “High permeability”. Also, in data set [2], the Papp A→B at 2 h, 10 μM worked out at 19.4 ×10⁻⁶ cm/s; the Papp B→A at 2 h, 10 μM was determined as 42.7 ×10⁻⁶ cm/s; the efflux ratio at 2 h, 10 μM came out at 2.22.
For `CNC(=C[N+](=O)[O-])NCCSCc1ccc(CN(C)C)o1` [Ranitidine] the same measures were “Low permeability”, 0.585 ×10⁻⁶ cm/s, 3.13 ×10⁻⁶ cm/s and 5.41.
With `CC[C@@H]1C(=O)OC[C@@H]1Cc1cncn1C` [pilocarpine, (3S,4R)-3-Ethyl-4-((1-methyl-1H-imidazol-5-yl)methyl)dihydrofuran-2(3H)-one], the BCS permeability classification entry in data set [1] is “high permeability”.

In general, Papp A→B refers to the apparent permeability from the apical to the basolateral side of a cell layer. Higher therefore signals fast passage. The term Papp B→A denotes the apparent permeability from the basolateral to the apical side of a cell layer. In general, efflux ratio refers to the permeability from basolateral to apical divided by that in the opposite direction, in the common usage.
